In US20090068210A1, “IMMUNOTHERAPY FOR HEMATOLOGICAL MALIGNANCIES” (priority 2007, published 2009):

How the values were obtained:
iNKT cells [1] = experiment: Cytokine production (ELISA) by iNKT cells co-cultured with antigen presenting cells (MM1S.CD1d cells or DCs), with or without α-GalCer; format: cell-based, human
Experimental: 1×10^5 NKT cells from MM patients were plated in a 96-well plate with MM1S.CD1d cells or DCs at ratios of 2:1 and 4:1, respectively, with or without pre-loaded α-GalCer (100 ng/ml). 1-Oxo-2-(2,6-dioxopiperidin-3-yl)-4-aminoisoindoline (2 μM) was used as indicated, with DMSO as control. The supernatant was collected at 48 and 72 hours and the levels of IFN-γ, IL-2 and IL-4 were determined by ELISA (R&D Systems, Minneapolis, Minn.).

iNKT cells [2] = experiment: as above; format: cell-based, human; remark: listed apart in the source
[3] = cited from earlier work; for Hygroscopicity: polymorphic form; for Interconversion in solvent systems: interconversion studies
[4] = iNKT cells + MM1S.CD1d cells in the absence of α-GalCer, compound 2 μM, ELISA
[5] = iNKT cells + α-GalCer-loaded MM1S.CD1d cells, compound 2 μM vs controls (DMSO), ELISA

In the case of `Nc1cccc2c1CN(C1CCC(=O)NC1=O)C2=O` (stereo not shown) [1-oxo-2-(2,6-dioxopiperidin-3-yl)-4-aminoisoindoline], the IL-4 level (iNKT cells [1]; iNKT cells + CD1d expressing multiple myeloma cells without α-GalCer, compound vs cells alone) is reported as “decrease”, the IFN-γ production (iNKT cells [1]; [4]) is reported as “increase” and the IL-2 production (iNKT cells [1]; [4]) is reported as “increase”. For the same compound, the IFN-γ level (iNKT cells [1]; [5]) was “significant increase”, the IL-2 level (iNKT cells [1]; [5]) was “significant increase” and the IL-4 level (iNKT cells [1]; [5]) was “decrease”. The “Increase in IFN-γ and IL-2 levels and decrease in IL-4 level” value (iNKT cells [2]; CD1d-transfected C1R cells as antigen presenting cells) was “confirmed” and the “Direct stimulation of iNKT cells” value (iNKT cells [2]; iNKT cells alone or co-cultured with mock MM.1S cells, with or without α-GalCer) was “did not directly stimulate”.

For `Nc1cccc2c1CN(C1CCC(=O)NC1=O)C2=O` (stereo not shown) [Form A, 3-(4-amino-1-oxo-1,3 dihydro-isoindol-2-yl)-piperidene-2,6-dione], the “Relative stability among polymorphs” value ([3]; Form A: anhydrous polymorphs, Form E: aqueous solvent systems) is given as “most thermodynamically stable anhydrous polymorph” and the Hygroscopicity [3] is given as “weakly or not hygroscopic”.

For `Nc1cccc2c1CN(C1CCC(=O)NC1=O)C2=O` (stereo not shown) [Form B, 3-(4-amino-1-oxo-1,3 dihydro-isoindol-2-yl)-piperidene-2,6-dione], the Conversion upon heating ([3]; 175° C. for about five minutes) is listed as “can convert to Form F” and the “Interconversion in solvent systems” value [3] is listed as “converts to Form E in aqueous solvent systems”.

For `Nc1cccc2c1CN(C1CCC(=O)NC1=O)C2=O` (stereo not shown) [Form C, 3-(4-amino-1-oxo-1,3 dihydro-isoindol-2-yl)-piperidene-2,6-dione], the Hygroscopicity [3] is given as “not hygroscopic below about 85% RH”.

For `Nc1cccc2c1CN(C1CCC(=O)NC1=O)C2=O` (stereo not shown) [Form D, 3-(4-amino-1-oxo-1,3 dihydro-isoindol-2-yl)-piperidene-2,6-dione], the Hygroscopicity [3] is listed as “either weakly or not hygroscopic”.

In the case of `Nc1cccc2c1CN(C1CCC(=O)NC1=O)C2=O` (stereo not shown) [Form E, 3-(4-amino-1-oxo-1,3 dihydro-isoindol-2-yl)-piperidene-2,6-dione], the “Conversion upon heating (desolvation)” value ([3]; about 125° C. for about five minutes) is given as “can convert to Form B” and the “Interconversion in solvent systems” value [3] is given as “can convert to Form C in an acetone solvent system and to Form G in a THF solvent system”.
